In patent US11091421B2, “Benzene fused heterocyclic derivative and pharmaceutical composition comprising the same” (TAIWANJ PHARMACEUTICALS CO., LTD., priority 2017, dated 2021) one finds inhibition and Inhibition data, which are given here for 63 compounds.

In the test the target is autotaxin (Homo sapiens, UniProt Q13822). The experiment in a line: Autotaxin inhibitor screening assay (phosphodiesterase activity, p-nitrophenol cleaved from bis-(p-nitrophenyl) phosphate, absorbance 410 nm). It is filed as biochemical. As for the experimental part:
As described above, the compounds in the present disclosure have the effect of inhibiting the activity of autotaxin, and can be used as autotaxin inhibitors. One method for inhibiting activity of autotaxin in environment is administering to the environment an effective amount of the compound of Formula (I). Please refer to the following experiment, the phosphodiesterase activity of autotaxin was measured using the p-nitrophenol that is a yellow product cleaved by autotaxin from the bis-(p-nitrophenyl) phosphate. Compound samples (10 μl) were incubated with autotaxin (10 μl) in a final volume of 200 μl assay buffer (5 mM CaCl2, 50 mM Tris-HCl, pH 9.0) containing bis-(p-nitrophenyl) phosphate (BNPP) at a final concentration of 3 mM at 37° C. After 30 minutes, absorbance at 410 nm of the reacted solution was measured. The percent inhibition for each test article (TA) (compound) was determined using the following equation. % Inhibition=(O.D.vehicle−O.D.TA)/O.D.vehicle×100

The mark [1] stands for this setting: pH 9, compound at 30 μM, BNPP 3 mM, pH 9.0, 37° C., 30 minutes, read-out: Inhibition.

Like-named read-outs stand apart in the source and are kept apart here.

For the compound `O=C(O)c1ccc(COc2ccc3c(c2)C/C(=C\c2ccc(Cl)cc2)C3=O)cc1` [Compound 5], under setting [1], the inhibition at 30 µM was greater than 80%.

On to `O=C1/C(=C/c2ccc(C(F)(F)F)cc2)Cc2ccc(OCc3ccc(F)c(F)c3)cc21` [Compound 6], for which, under setting [1], the inhibition at 30 µM was less than 50%.

On to `O=C1/C(=C/c2cccc(C(F)(F)F)c2)Cc2ccc(OCc3ccc(F)c(F)c3)cc21` [Compound 7], for which the inhibition at 30 µM under setting [1] fell in the range of 50 to 80%.

As to `O=C(O)c1ccc(/C=C2\Cc3ccc(OCc4ccc(F)c(F)c4)cc3C2=O)cc1` [Compound 8], under setting [1], the inhibition at 30 µM is less than 50%.

As for `O=C(O)c1cccc(/C=C2\Cc3ccc(OCc4ccc(F)c(F)c4)cc3C2=O)c1` [Compound 9], the inhibition at 30 µM under setting [1] was less than 50%.

In the case of `O=C(O)c1ccc(/C=C2\Cc3cc(OCc4cc(F)c(F)cc4F)ccc3C2=O)cc1` [Compound 10], the inhibition at 30 µM under setting [1] was less than 50%.

With `O=C(O)c1ccc(/C=C2\Cc3cccc(OCc4cc(F)c(F)cc4F)c3C2=O)cc1` [Compound 11], the inhibition at 30 µM under setting [1] was in the range of 50 to 80%.

For the compound `O=C(O)c1ccc(COc2ccc3c(c2)C/C(=C\c2ccc(-c4ccc(F)cc4)cc2)C3=O)cc1` [Compound 12], under setting [1], the inhibition at 30 µM is greater than 80%.

Turning to `O=C(O)c1ccc(COc2ccc3c(c2)C/C(=C\c2ccc(Cl)c(F)c2)C3=O)cc1` [Compound 13], under setting [1], the inhibition at 30 µM is greater than 80%.

Take `O=C(O)c1ccc(COc2ccc3c(c2)C/C(=C\c2ccc(OCc4cc(F)c(F)cc4F)cc2)C3=O)cc1` [Compound 14]: the inhibition at 30 µM under setting [1] is greater than 80%.

`O=C(O)c1ccc(COc2ccc3c(c2)C/C(=C\c2ccc(OCc4cc(F)c(F)cc4F)c(F)c2)C3=O)cc1` [Compound 15]: under setting [1], the inhibition at 30 µM fell in the range of 50 to 80%.

On to `O=C(O)c1ccc(COc2ccc3c(c2)C/C(=C\c2ccc(OCCOc4ccc(F)cc4F)cc2)C3=O)cc1` [Compound 16], for which the inhibition at 30 µM under setting [1] fell in the range of 50 to 80%.

Regarding `O=C(O)c1ccc(COc2ccc3c(c2)C/C(=C\CCc2cc(Cl)cc(Cl)c2)C3=O)cc1` [Compound 17], the inhibition at 30 µM under setting [1] was greater than 80%.

As to `O=C(O)c1ccc(COc2ccc3c(c2)C/C(=C\c2cc(F)c(F)c(F)c2)C3=O)cc1` [Compound 18], the inhibition at 30 µM under setting [1] was 50 to 80%.

As for `O=C(O)c1ccc(COc2ccc3c(c2)C/C(=C\c2ccc(Cl)cc2Cl)C3=O)cc1` [Compound 19], under setting [1], the inhibition at 30 µM was greater than 80%.

Consider `O=C(O)c1ccc(COc2ccc3c(c2)C/C(=C\c2cc(Cl)cc(Cl)c2)C3=O)cc1` [Compound 20, (E)-4-(((2-(3,5-dichlorobenzylidene)-1-oxo-2,3-dihydro-1H-inden-5-yl)oxy)methyl)benzoic acid], for which the inhibition at 30 µM under setting [1] was greater than 80%.

For the compound `O=C(O)c1ccc(COc2ccc3c(c2)C/C(=C\c2cc(F)c(F)cc2F)C3=O)cc1` [Compound 21], the inhibition at 30 µM under setting [1] is greater than 80%.

Turning to `O=C(Nc1ccc2c(c1)C/C(=C\c1cccc(C(F)(F)F)c1)C2=O)OCc1ccccc1` [Compound 26], the inhibition at 30 µM under setting [1] is less than 50%.

On to `O=C(Nc1ccc2c(c1)C/C(=C\c1ccc(C(F)(F)F)cc1)C2=O)OCc1ccccc1` [Compound 27], for which, under setting [1], the inhibition at 30 µM was less than 50%.

Regarding `O=C(Nc1ccc2c(c1)C/C(=C\c1ccc(C(=O)O)cc1)C2=O)OCc1ccccc1` [Compound 28], the inhibition at 30 µM under setting [1] is less than 50%.

On to `O=C(NCc1cc(F)ccc1F)c1ccc(CC2Cc3cc(O)ccc3C2=O)cc1` (stereo not drawn) [Compound 32], for which, under setting [1], the inhibition at 30 µM was less than 50%.

Turning to `O=C(NCc1cc(F)ccc1F)c1ccc(/C=C2\Cc3cc(O)ccc3C2=O)cc1` [Compound 33], the inhibition at 30 µM under setting [1] was 50 to 80%.

Regarding `O=C(OCc1cc(F)c(F)cc1F)c1ccc(CC2Cc3ccc(O)cc3C2=O)cc1` (stereo not drawn) [Compound 34], the inhibition at 30 µM under setting [1] is 50 to 80%.

Take `O=C(Nc1ccc2c(c1)C(=O)N(Cc1ccc(C(F)(F)F)cc1)C2=O)OCc1ccccc1` [Compound 38]: the inhibition at 30 µM under setting [1] was less than 50%.

Regarding `O=C(O)c1ccc(CC2CCc3cc(OCc4cc(F)c(F)cc4F)ccc3C2=O)cc1` (stereo not drawn) [Compound 44], the inhibition at 30 µM under setting [1] is less than 50%.

`O=C(NCCO)c1ccc(CC2CCc3cc(OCc4cc(F)c(F)cc4F)ccc3C2=O)cc1` (stereo not drawn) [Compound 45]: under setting [1], the inhibition at 30 µM was 50 to 80%.

As to `O=C(O)c1ccc(/C=C2\CCc3c(OCc4cc(F)c(F)cc4F)cccc3C2=O)cc1` [Compound 46], the inhibition at 30 µM under setting [1] is 50 to 80%.

Regarding `O=C(O)c1ccc(CC2CCc3c(OCc4cc(F)c(F)cc4F)cccc3C2=O)cc1` (stereo not drawn) [Compound 47], under setting [1], the inhibition at 30 µM lay within 50 to 80%.

Take `O=C(O)c1ccc(/C=C2\CCc3cc(OCCc4ccc(F)cc4)ccc3C2=O)cc1` [Compound 50]: under setting [1], the inhibition at 30 µM was 50 to 80%.

With `O=C(O)c1ccc(CC2CCc3cc(OCCc4ccc(F)cc4)ccc3C2=O)cc1` (stereo not drawn) [Compound 51], under setting [1], the inhibition at 30 µM is greater than 80%.

In the case of `O=C(O)c1cc(CC2CCc3cc(OCCc4cc(F)ccc4F)ccc3C2=O)ccc1O` (stereo not drawn) [Compound 52], the inhibition at 30 µM under setting [1] was in the range of 50 to 80%.

Turning to `O=C1c2ccc(OCCc3cc(F)ccc3F)cc2CCC1Cc1ccc(O)c(O)c1` (stereo not drawn) [Compound 53], the inhibition at 30 µM under setting [1] was greater than 80%.

As for `O=C(NCc1cc(F)ccc1F)c1ccc(CC2CCc3cc(O)ccc3C2=O)cc1` (stereo not drawn) [Compound 56], the inhibition at 30 µM under setting [1] is less than 50%.

On to `O=C(OCc1cc(F)c(F)cc1F)c1ccc(CC2CCc3cc(O)ccc3C2=O)cc1` (stereo not drawn) [Compound 57], for which the inhibition at 30 µM under setting [1] was greater than 80%.

Take `O=C(OCc1ccc(F)c(F)c1)c1ccc(CC2CCc3cc(OCc4ccc(F)c(F)c4)ccc3C2=O)cc1` (stereo not drawn) [Compound 58]: under setting [1], the inhibition at 30 µM is greater than 80%.

Consider `O=C(NCc1ccc(F)c(F)c1)c1ccc(CC2CCc3cc(O)ccc3C2=O)cc1` (stereo not drawn) [Compound 59], for which the inhibition at 30 µM under setting [1] lay within 50 to 80%.

For the compound `O=C(NCCc1ccc(Cl)c(Cl)c1)c1ccc(CC2CCc3cc(O)ccc3C2=O)cc1` (stereo not drawn) [Compound 60], the inhibition at 30 µM under setting [1] fell in the range of 50 to 80%.

Turning to `CN(Cc1cc(F)c(F)cc1F)C(=O)c1ccc(CC2CCc3cc(O)ccc3C2=O)cc1` (stereo not drawn) [Compound 61], the inhibition at 30 µM under setting [1] is 50 to 80%.

Regarding `O=C(OCc1cc(F)ccc1F)c1ccc(CC2CCc3cc(OCc4cc(F)ccc4F)ccc3C2=O)cc1` (stereo not drawn) [Compound 62], under setting [1], the inhibition at 30 µM was greater than 80%.

As for `O=C(Nc1ccc(CC2CCc3cc(O)ccc3C2=O)cc1)OCc1ccc(Cl)c(Cl)c1` (stereo not drawn) [Compound 68], the inhibition at 30 µM under setting [1] was greater than 80%.

Consider `O=C(Cc1ccc(F)c(F)c1)Nc1ccc(CC2CCc3cc(O)ccc3C2=O)cc1` (stereo not drawn) [Compound 69], for which, under setting [1], the inhibition at 30 µM was less than 50%.

For the compound `O=C(Nc1ccc(CC2CCc3cc(O)ccc3C2=O)cc1)OCc1cc(Cl)cc(Cl)c1` (stereo not drawn) [Compound 70], the inhibition at 30 µM under setting [1] was greater than 80%.

In the case of `O=C(Nc1ccc(CC2CCc3cc(O)ccc3C2=O)cc1)OCc1cc(F)c(F)cc1F` (stereo not drawn) [Compound 71], the inhibition at 30 µM under setting [1] fell in the range of 50 to 80%.

Regarding `O=C(O)c1ccc(CN2CCc3cc(OCc4cc(F)c(F)cc4F)ccc3C2=O)cc1` [Compound 77], under setting [1], the inhibition at 30 µM is 50 to 80%.

As to `O=C(CCc1ccc(CC2CCc3cc(O)ccc3C2=O)cc1)c1ccc(F)c(F)c1` (stereo not drawn) [Compound 81], the inhibition at 30 µM under setting [1] lay in the range of 50 to 80%.

Turning to `O=C1c2ccc(O)cc2CCC1CN1CCN(C(=O)OCc2cc(Cl)cc(Cl)c2)CC1` (stereo not drawn) [Compound 85], the inhibition at 30 µM under setting [1] was greater than 80%.

Take `COC(=O)c1ccc(COc2ccc3c(c2)C/C(=C\c2ccc(Cl)c(F)c2)C3=O)cc1` [Compound 88]: the inhibition at 30 µM under setting [1] was greater than 80%.

As to `COC(=O)c1ccc(COc2ccc3c(c2)O/C(=C\c2ccc(F)c(F)c2)C3=O)cc1` [Compound 89], under setting [1], the inhibition at 30 µM was in the range of 50 to 80%.

Consider `O=C1/C(=C/c2ccc(C(F)(F)F)cc2)CCc2cc(OCc3ccc(F)c(F)c3)ccc21` [Compound 92], for which, under setting [1], the inhibition at 30 µM fell in the range of 50 to 80%.

Consider `O=C1/C(=C/c2cccc(C(F)(F)F)c2)CCc2cc(OCc3ccc(F)c(F)c3)ccc21` [Compound 93], for which the inhibition at 30 µM under setting [1] fell in the range of 50 to 80%.

On to `O=C(Nc1ccc(F)c(F)c1)c1ccc2c(c1)C(=O)N(Cc1cccc(C(F)(F)F)c1)C2=O` [Compound 96], for which the inhibition at 30 µM under setting [1] is 50 to 80%.

Turning to `O=C1/C(=C/c2ccc(OCc3cc(F)c(F)cc3F)cc2)CCc2cc(O)ccc21` [Compound 99], the inhibition at 30 µM under setting [1] is less than 50%.

As to `O=C1/C(=C/c2ccc(OCCc3ccc(F)cc3)cc2)CCc2cc(O)ccc21` [Compound 100], the inhibition at 30 µM under setting [1] is less than 50%.

Turning to `O=C1/C(=C/c2ccc(OCCOc3ccc(F)cc3F)cc2)CCc2cc(O)ccc21` [Compound 101], the inhibition at 30 µM under setting [1] is less than 50%.

Turning to `O=C1c2ccc(O)cc2CCC1Cc1ccc(OCCOc2ccc(F)cc2F)cc1` (stereo not drawn) [Compound 102], the inhibition at 30 µM under setting [1] lay in the range of 50 to 80%.

On to `O=C(Nc1ccc2c(c1)CC(Cc1ccc(C(=O)O)cc1)C2)OCc1ccccc1` (stereo not drawn) [Compound 110], for which, for the setting “pH 9”, the inhibition at 30 µM lay within 50 to 80%.

As for `O=C1c2cc(O)ccc2CC1CC1CCN(C(=O)OCc2cc(Cl)cc(Cl)c2)CC1` (stereo not drawn) [Compound 117], the inhibition at 30 µM under setting [1] is less than 50%.

As to `O=C(Nc1ccc(CC2CCc3cc(O)ccc3C2=O)cc1)Nc1cc(Cl)cc(Cl)c1` (stereo not drawn) [Compound 118], the inhibition at 30 µM under setting [1] is less than 50%.

On to `O=C1c2cc(O)ccc2CC1CC1CCN(C(=O)OCc2cc(Cl)cc(Cl)c2)CC1` (stereo not drawn) [Compound 119], for which, for the setting “compound at 30 μM, BNPP 3 mM, pH 9.0, 37° C., 30 minutes”, the Inhibition result was “B (50%~80% inhibition at 30 μM)”.

Consider `CNC(=O)c1ccc(COc2ccc3c(c2)C/C(=C\c2cc(Cl)cc(Cl)c2)C3=O)cc1` [Compound 120], for which the inhibition at 30 µM under setting [1] is greater than 80%.

As for `CS(=O)(=O)N1CCN(C(=O)c2ccc(COc3ccc4c(c3)C/C(=C\c3cc(Cl)cc(Cl)c3)C4=O)cc2)CC1` [Compound 121], the inhibition at 30 µM under setting [1] was less than 50%.

Regarding `CS(=O)(=O)c1ccc(COc2ccc3c(c2)C/C(=C\c2cc(Cl)cc(Cl)c2)C3=O)cc1` [Compound 122], under setting [1], the inhibition at 30 µM was less than 50%.

On to `CNS(=O)(=O)c1ccc(COc2ccc3c(c2)C/C(=C\c2cc(Cl)cc(Cl)c2)C3=O)cc1` [Compound 123], for which the inhibition at 30 µM under setting [1] is less than 50%.

What is called inhibition is the relative decrease from the control value, in per cent.
